Values after ≈ are worked out from the molar mass of the structure shown.

These results are taken from US20100120737A1, “Amorphous ciclesonide” (priority 2008, published 2010).

Assay type in all cases: physicochemical
The nature of data set [1]: Saturation solubility experiments. Particulars: water, 24 hours stirring after ultrasonic treatment. The procedure:
Defined amounts of in each case about 14 to 25 mg of X-ray amorphous or crystalline ciclesonide were weighed into a conical Erlenmeyer flask equipped with a rubber stopper (n=3). 100 ml of water (Millipore quality. ELIX 3. Gradient A 10, pH 5.92-6.00) were added and 30 minutes of ultrasonic treatment was applied to the samples. Afterwards the samples were stirred in the dark for 24 hours at 37° C. in a water bath. After the desired stirring time, each sample was filtered through a 0.2 μm membrane filter (Schleicher & Schuell, RC 0.2 μm Spartan 30/A) and concentrated on a Sep-Pak cartridge (Waters Sep-Pak cartridge C18, WAT051910). Then the cartridge was eluted with ethanol (gradient grade, Merck). The ciclesonide in the ethanol solution was then quantified by HPLC (LaChrom®-HPLC System Series 7000, column: Zorbax SB phenyl, eluent: water/ethanol 38%: 62% (v/v) isocratic, column temperature: 60° C., injection volume: 50 μL, UV-detection at 243 nm) against an external standard.

Data set [2] can be described thus: Stability under elevated pressure (recrystallization). The conditions noted are these: pressure of up to 2.500 for 5 min. An excerpt:
Such a stability against pressure is particularly desirable when a pharmaceutical agent is used for preparation of solid pharmaceutical compositions such as tablets or granules.

The next data set can be described thus: Hygroscopicity.
Data set [3] in a line: Dissolution experiments (dissolution kinetics in water). As to the method:
For each timepoint (5 min, 10 min, 20 min, 35 min, 60 min and 1440 min) of the dissolution experiment, three samples each of X-ray amorphous and crystalline ciclesonide were prepared by weighing a defined amount of in each case about 15 mg into a 250 ml conical wide-necked Erlenmeyer flask and stirring (850 rpm, glass coated magnetic stir bar, having a length of 2.4 cm and a diameter of 0.59 cm) the samples at 37° C. in 100 ml water (Millipore quality, ELIX 3, Gradient A 10, pH 5.92-6.00). The moment of the addition of water was defined as t0. The tempering of the samples was performed using an air bath. After the desired stirring time, the complete samples were filtered through a 0.2 μm membrane filter (Schleicher & Schuell, RC 0.2 μm Spartan 30/A) and concentrated on a Sep-Pak cartridge (Waters Sep-Pak cartridge C18, WAT051910). The cartridge was then eluted with ethanol (gradient grade, Merck). The ciclesonide in the ethanol solution was then quantified by HPLC (LaChrom®-HPLC System Series 7000, column: Zorbax SB phenyl, eluent: water/ethanol 38%: 62% (v/v) isocratic, column temperature: 60° C., injection volume: 50 μL, UV-detection at 243 nm) against an external standard.

Regarding `CC(C)C(=O)OCC(=O)[C@@]12OC(C3CCCCC3)O[C@@H]1CC1[C@@H]3CCC4=CC(=O)C=C[C@]4(C)[C@H]3[C@@H](O)C[C@@]12C` (stereo partly drawn) [amorphous ciclesonide, 16,17-[(Cyclohexyl-methylene)bis(oxy)]-11-hydroxy-21-(2-methyl-1-oxopropoxy)-pregna-1,4-diene-3,20-dione[11β,16α]], in data set [1] (37° C.), the saturation solubility is 0.0916 ± 0.0052 µg/mL. For the same compound, the recrystallization under pressure result in data set [2] is recorded as “did not show any signs of recrystallization”. The hygroscopicity result in the data set “Hygroscopicity” is reported as “not hygroscopic”. In data set [3] (37° C., after 20 minutes), the “concentration of dissolved ingredient after 20 minutes” value was 340 ng/mL. Also, in data set [3] (37° C., after 24 hours), the “concentration of dissolved ciclesonide after 24 hours” value was 105 ng/mL. Further, the “concentration of dissolved ingredient within 5 minutes” value in data set [3] (37° C., within 5 minutes) is 290 ng/mL. For the same compound, the “concentration of dissolved ingredient relative to crystalline ciclesonide after 1 hour” value in data set [3] (after 1 hour, amorphous vs crystalline) is on record as “about sevenfold”.
In the case of `CC(C)C(=O)OCC(=O)[C@@]12OC(C3CCCCC3)O[C@@H]1CC1[C@@H]3CCC4=CC(=O)C=C[C@]4(C)[C@H]3[C@@H](O)C[C@@]12C` (stereo partly drawn) [crystalline ciclesonide, 16,17-[(Cyclohexyl-methylene)bis(oxy)]-11-hydroxy-21-(2-methyl-1-oxopropoxy)-pregna-1,4-diene-3,20-dione[11β,16α], reference compound], in data set [1] (37 °C, pH 6, water, thermodynamic from solid), the solubility at 24 h is roughly 0.091 µg/mL (≈ 0.168 µM). In data set [3] (pH 6, thermodynamic from solid, 37° C., after 1 hour), this compound came in with a solubility at 1 h of roughly 0.05 µg/mL (≈ 0.0925 µM).

The solubility is how much of the substance goes into solution per volume. Higher therefore signals a readily soluble substance.
